A short description of experiment [1]: Preemergence herbicidal activity (% control) against monocot weeds. Particulars: pre-emergence, 336 h, average, about two weeks after application, read-out: Herbicidal activity (% control), preemergence, monocots; for activity at 2241.7 g/ha: 2 lb./A.; for activity at 4483.4 g/ha: 4 lb./A.; for activity at 11208.5 g/ha: 10 lb./A. In kind it is in vivo. The source says: (§1) barnyardgrass (Echinochloa crusgalli) crabgrass (Digitaria spp.) nutsedge (Cyperus esculentus)
(§2) At 2 and 4 pounds per acre:
(§3) **Bermudagrass (Cynodon dactylon)
(§4) *downy brome (Bromus tectorum) foxtail (Setaria faberii)
(§5) Johnsongrass (Sorghum halepense) […]
(§6) quackgrass (Agropyron repens)
(§7) *ryegrass (Lolium perenne)
(§8) *wild oats (Avena factua)
(§9) *yellow millet (Panicum miliaceum)
(§10) The following test procedure is employed.

A short description of experiment [2]: Postemergence herbicidal activity (% control) against monocot weeds. In kind it is in vivo. Conditions: post-emergence, 336 h, average, about two weeks after application, read-out: Herbicidal activity (% control), postemergence, monocots; for activity at 2241.7 g/ha: 2 lb./A.; for activity at 4483.4 g/ha: 4 lb./A.; for activity at 11208.5 g/ha: 10 lb./A.
From the text: as §1, §2, §3, §4, §5, §6, §7, §8, §9, §10

Experiment [3] is described as follows: Preemergence herbicidal activity (% control) against dicot weeds. Particulars: pre-emergence, 336 h; for activity at 11208.5 g/ha: read-out: Herbicidal activity (% control), preemergence, dicots, 10 lb./A., average, about two weeks after application.
Experiment [4] can be described thus: Postemergence herbicidal activity (% control) against dicot weeds. Conditions: post-emergence, 336 h; for activity at 11208.5 g/ha: read-out: Herbicidal activity (% control), postemergence, dicots, 10 lb./A., average, about two weeks after application.
Setting [5] is: read-out: Herbicidal activity (% control), preemergence, dicots, 2 lb./A., average, about two weeks after application.
The mark [6] stands for this setting: read-out: Herbicidal activity (% control), preemergence, dicots, 4 lb./A., average, about two weeks after application.
Where [7] appears, read: read-out: Herbicidal activity (% control), postemergence, dicots, 2 lb./A., average, about two weeks after application.
Setting [8] is: read-out: Herbicidal activity (% control), postemergence, dicots, 4 lb./A., average, about two weeks after application.
The mark [9] stands for this setting: read-out: Herbicidal activity (% control), preemergence, dicots.
Where [10] appears, read: read-out: Herbicidal activity (% control), postemergence, dicots.

Our source for the activity values is US4419123A, “Herbicidal 4-trifluoromethyl-3'-carbon-substituted-4'-substituted diphenyl ethers” (Rohm and Haas Company, priority 1981, dated 1983).

Turning to `CC(=O)CCOc1cc(Oc2ccc(C(F)(F)F)cc2Cl)ccc1[N+](=O)[O-]` [Example 31], the activity at 2241.7 g/ha in experiment [1] amounted to 68%; in experiment [2], 68%; in experiment [3] (setting [5]), 69%; in experiment [4] (setting [7]) it was 100%. Also, the activity at 4483.4 g/ha in experiment [1] worked out at 74%; in experiment [2] it was 61%; in experiment [3] (setting [6]), 99%; in experiment [4] (setting [8]), 100%.
For the compound `CCCOc1cc(Oc2ccc(C(F)(F)F)cc2Cl)ccc1[N+](=O)[O-]` [Example 5], the activity at 4483.4 g/ha in experiment [1] was 84%; in experiment [2], 99%; in experiment [3] (setting [6]) it was 78%; in experiment [4] (setting [8]) it was 100%. The activity at 11208.5 g/ha in experiment [1] is 97%; in experiment [2], 100%; in experiment [3], 100%.
In the case of `O=C(CCl)Nc1cc(Oc2ccc(C(F)(F)F)cc2Cl)ccc1[N+](=O)[O-]` [Example 35, 2-chloro-α,α,α-trifluoro-p-tolyl-3-chloroacetamido-4-nitrophenyl ether], the activity at 2241.7 g/ha in experiment [1] was found to be 60%; in experiment [2], 63%; in experiment [3] (setting [5]), 72%; in experiment [4] (setting [7]) it was 80%. Moreover, the activity at 4483.4 g/ha was 40% in experiment [1], 45% in experiment [2] and 98% in experiment [4] (setting [8]).
Regarding `CS(=O)(=O)CCOc1cc(Oc2ccc(C(F)(F)F)cc2Cl)ccc1[N+](=O)[O-]` [Example 42], the activity at 2241.7 g/ha in experiment [1] turned out to be 83%; in experiment [2], 63%; in experiment [3] (setting [5]), 60%; in experiment [4] (setting [7]) it was 88%. For the same compound, the activity at 4483.4 g/ha in experiment [1] turned out to be 62%; in experiment [2], 38%; in experiment [3] (setting [6]), 80%; in experiment [4] (setting [8]), 98%.
On to `O=[N+]([O-])c1ccc(Oc2ccc(C(F)(F)F)cc2Cl)cc1O` [Example 10, 2-Chloro-α,α,α-trifluoro-p-tolyl-3-hydroxy-4-nitrophenylether], for which the activity at 2241.7 g/ha was determined as 66% in experiment [1], 17% in experiment [2], 70% in experiment [3] (setting [5]) and 85% in experiment [4] (setting [7]). The activity at 4483.4 g/ha in experiment [1] stood at 70%; in experiment [2] it was 67%; in experiment [3] (setting [6]), 100%; in experiment [4] (setting [8]) it was 98%.
Regarding `O=[N+]([O-])c1ccc(Oc2ccc(C(F)(F)F)cc2Cl)cc1OCC1CO1` (stereo not shown) [Example 38], the activity at 2241.7 g/ha in experiment [1] amounted to 62%; in experiment [2], 51%; in experiment [3] (setting [5]), 68%; in experiment [4] (setting [7]), 58%. Moreover, the activity at 4483.4 g/ha in experiment [1] turned out to be 47%; in experiment [2], 43%; in experiment [3] (setting [6]), 86%; in experiment [4] (setting [8]), 98%.
`O=[N+]([O-])c1ccc(Oc2ccc(C(F)(F)F)cc2Cl)cc1OCC(O)CO` (stereo not drawn) [Example 39, 2-chloro-α,α,α-trifluoro-p-tolyl-3-(2,3-dihydroxypropoxy)-4-nitrophenyl ether]: the activity at 2241.7 g/ha in experiment [1] is 77%; in experiment [2], 61%; in experiment [3] (setting [5]) it was 80%; in experiment [4] (setting [7]) it was 100%. Moreover, the activity at 4483.4 g/ha in experiment [1] is 65%; in experiment [2], 64%; in experiment [3] (setting [6]) it was 99%; in experiment [4] (setting [8]) it was 98%.
As for `CNC(=O)Oc1cc(Oc2ccc(C(F)(F)F)cc2Cl)ccc1[N+](=O)[O-]` [Example 33], the activity at 2241.7 g/ha in experiment [1] worked out at 79%; in experiment [2], 65%; in experiment [3] (setting [9]), 74%; in experiment [4] (setting [10]), 100%. Further, the activity at 4483.4 g/ha in experiment [1] worked out at 53%; in experiment [2], 32%; in experiment [3] (setting [9]), 99%; in experiment [4] (setting [10]) it was 98%.
For the compound `CCCCOc1cc(Oc2ccc(C(F)(F)F)cc2Cl)ccc1[N+](=O)[O-]` [Example 6], the activity at 4483.4 g/ha was found to be 77% in experiment [1], 91% in experiment [2], 55% in experiment [3] (setting [6]) and 94% in experiment [4] (setting [8]). The activity at 11208.5 g/ha is 65% in experiment [1], 97% in experiment [2], 70% in experiment [3] and 100% in experiment [4].
With `CCOCCOc1cc(Oc2ccc(C(F)(F)F)cc2Cl)ccc1[N+](=O)[O-]` [Example 16], the activity at 2241.7 g/ha in experiment [1] worked out at 67%; in experiment [2], 82%; in experiment [3] (setting [5]), 75%; in experiment [4] (setting [7]), 94%. For the same compound, the activity at 4483.4 g/ha came out at 86% in experiment [1], 77% in experiment [2], 94% in experiment [3] (setting [6]) and 96% in experiment [4] (setting [8]).
As for `CCOc1cc(Oc2ccc(C(F)(F)F)cc2)ccc1[N+](=O)[O-]` [Example 1], the activity at 4483.4 g/ha in experiment [1] was determined as 76%; in experiment [2], 57%; in experiment [3] (setting [6]) it was 45%; in experiment [4] (setting [8]) it was 58%. The activity at 11208.5 g/ha in experiment [1] came to 42%; in experiment [2], 82%; in experiment [3], 35%; in experiment [4], 100%.
As for `O=[N+]([O-])c1ccc(Oc2ccc(C(F)(F)F)cc2Cl)cc1NCCO` [Example 22], the activity at 2241.7 g/ha in experiment [1] came to 63%; in experiment [2] it was 70%; in experiment [3] (setting [5]), 77%; in experiment [4] (setting [7]) it was 100%. In addition, the activity at 4483.4 g/ha came out at 72% in experiment [1], 60% in experiment [2], 98% in experiment [3] (setting [6]) and 99% in experiment [4] (setting [8]).
Consider `CCOc1cc(Oc2ccc(C(F)(F)F)cc2C#N)ccc1[N+](=O)[O-]` [Example 7, 2-Cyano-α,α,α-trifluoro-p-tolyl-3-ethoxy-4-nitrophenyl ether], for which the activity at 2241.7 g/ha was 65% in experiment [1], 82% in experiment [2], 54% in experiment [3] (setting [5]) and 80% in experiment [4] (setting [7]). The activity at 4483.4 g/ha in experiment [1] was determined as 65%; in experiment [2], 75%; in experiment [3] (setting [6]) it was 57%; in experiment [4] (setting [8]), 77%. The activity at 11208.5 g/ha in experiment [1] is 61%; in experiment [2] it was 100%; in experiment [3] it was 60%.
As for `CCOC(=O)COc1cc(Oc2ccc(C(F)(F)F)cc2Cl)ccc1[N+](=O)[O-]` [Example 24], the activity at 2241.7 g/ha in experiment [1] is 62%; in experiment [2] it was 84%; in experiment [3] (setting [5]) it was 97%; in experiment [4] (setting [7]) it was 100%. The activity at 4483.4 g/ha turned out to be 91% in experiment [1], 86% in experiment [2], 68% in experiment [3] (setting [6]) and 99% in experiment [4] (setting [8]).
Consider `Cc1cc(Oc2ccc(C(F)(F)F)cc2C#N)ccc1[N+](=O)[O-]` [Example 9], for which the activity at 2241.7 g/ha worked out at 81% in experiment [1], 82% in experiment [2], 67% in experiment [3] (setting [5]) and 75% in experiment [4] (setting [7]). Further, the activity at 4483.4 g/ha in experiment [1] is 90%; in experiment [2], 97%; in experiment [3] (setting [6]), 66%; in experiment [4] (setting [8]), 81%. Also, the activity at 11208.5 g/ha turned out to be 99% in experiment [1], 100% in experiment [2] and 92% in experiment [3].
Take `CCN(C(=O)NC)c1cc(Oc2ccc(C(F)(F)F)cc2Cl)ccc1[N+](=O)[O-]` [Example 55, 2-Chloro-α,α,α-trifluoro-p-tolyl-3-(3-methyl-1-ethylureido)-4-nitrophenyl ether]: the activity at 4483.4 g/ha worked out at 91% in experiment [1], 69% in experiment [2], 73% in experiment [3] (setting [6]) and 95% in experiment [4] (setting [8]). The activity at 2241.7 g/ha was found to be 31% in experiment [2] and 96% in experiment [4] (setting [7]).
As for `CCCOc1cc(Oc2ccc(C(F)(F)F)cc2C#N)ccc1[N+](=O)[O-]` [Example 8], the activity at 2241.7 g/ha turned out to be 52% in experiment [1], 35% in experiment [2], 46% in experiment [3] (setting [5]) and 66% in experiment [4] (setting [7]). Also, the activity at 4483.4 g/ha in experiment [1] was found to be 61%; in experiment [2], 48%; in experiment [3] (setting [6]), 57%; in experiment [4] (setting [8]), 80%. Moreover, the activity at 11208.5 g/ha in experiment [1] is 81%; in experiment [2], 85%; in experiment [3], 82%; in experiment [4] it was 100%.
